Each compound was assayed against T1, BIKE (BMP2K) kinase (Homo sapiens, UniProt Q9NSY1) (assay: Kinase inhibition assay (competition binding assay)). Conditions: qualitative statement; dose response curve only in FIG. 3, no values given.
T1 construct: made in house
T1 sequence (Q9NSY1 whole entry): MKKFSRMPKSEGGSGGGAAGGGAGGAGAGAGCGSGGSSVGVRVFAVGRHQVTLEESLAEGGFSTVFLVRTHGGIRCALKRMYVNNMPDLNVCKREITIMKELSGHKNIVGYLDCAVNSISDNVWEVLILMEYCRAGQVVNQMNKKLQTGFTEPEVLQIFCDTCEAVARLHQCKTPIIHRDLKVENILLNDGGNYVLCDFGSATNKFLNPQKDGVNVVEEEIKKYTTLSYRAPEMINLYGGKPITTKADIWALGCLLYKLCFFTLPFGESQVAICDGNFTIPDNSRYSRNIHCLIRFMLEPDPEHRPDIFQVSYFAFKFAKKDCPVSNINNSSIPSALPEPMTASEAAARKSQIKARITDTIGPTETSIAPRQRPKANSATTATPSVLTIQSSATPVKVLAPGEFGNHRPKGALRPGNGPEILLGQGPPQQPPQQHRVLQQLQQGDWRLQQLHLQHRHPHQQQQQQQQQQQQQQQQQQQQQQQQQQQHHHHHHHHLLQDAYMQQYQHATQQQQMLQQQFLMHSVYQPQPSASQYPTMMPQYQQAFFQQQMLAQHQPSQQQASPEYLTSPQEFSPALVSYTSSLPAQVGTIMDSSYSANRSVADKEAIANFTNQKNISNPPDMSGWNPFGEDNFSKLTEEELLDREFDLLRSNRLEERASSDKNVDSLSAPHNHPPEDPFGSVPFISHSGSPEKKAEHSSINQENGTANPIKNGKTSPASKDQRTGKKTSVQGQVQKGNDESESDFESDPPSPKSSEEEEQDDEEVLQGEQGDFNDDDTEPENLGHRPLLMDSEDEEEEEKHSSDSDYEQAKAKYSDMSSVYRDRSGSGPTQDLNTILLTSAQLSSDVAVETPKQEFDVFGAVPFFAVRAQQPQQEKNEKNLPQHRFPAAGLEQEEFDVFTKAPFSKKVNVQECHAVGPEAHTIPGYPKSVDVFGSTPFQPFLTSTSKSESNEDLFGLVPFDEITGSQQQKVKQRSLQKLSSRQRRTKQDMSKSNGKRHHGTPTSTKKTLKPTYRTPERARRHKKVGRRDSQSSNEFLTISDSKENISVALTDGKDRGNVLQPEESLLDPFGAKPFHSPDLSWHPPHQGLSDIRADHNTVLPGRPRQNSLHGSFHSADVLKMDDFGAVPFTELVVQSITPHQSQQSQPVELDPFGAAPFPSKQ
Experimental: Cannabis flavonoids and their analogs were subjected to kinase inhibition assay. The compounds were first screened at a single concentration of 10 μM in the primary assay. Compounds inhibiting at least 70% of specific kinases were subjected to further screening to determine kd values. To determine the kd values, competition binding assays were established, authenticated and executed as described previously (Fabian et al., 2005, Karaman et al., 2008). For most assays, kinases were fused to T7 phage strains (Fabian et al. 2005) and for the other assays, kinases were produced in HEK-293 cells after which they were tagged with DNA for quantitative PCR detection (data not shown). In general, full-length constructs were used for small, single domain kinases, and catalytic domain constructs for large multi-domain kinases. The binding assays utilized streptavidin-coated magnetic beads treated with biotinylated small molecule ligands for 30 minutes at room temperature which generated affinity resins for the kinase assays. The liganded beads were blocked with excess biotin and washed with blocking buffer (SeaBlock (Pierce), 1% BSA, 0.05% Tween 20, 1 mM DTT) to remove unbound ligand and to reduce non-specific phage binding. Binding reactions were assembled by combining kinases, liganded affinity beads, and test compounds in 1× binding buffer (20% SeaBlock, 0.17×PBS, 0.05% Tween 20, 6 mM DTT). Test compounds were prepared as 40× stocks in 100% DMSO and diluted directly into the assay (Final DMSO concentration=2.5%). All reactions were performed in polypropylene 384-well plates in a final volume of 0.04 ml. The assay plates were incubated at room temperature with shaking for 1 hour and the affinity beads were washed with wash buffer (1×PBS, 0.05% Tween 20). The beads were then re-suspended in elution buffer (1×PBS, 0.05% Tween 20, 0.5 μM non-biotinylated affinity ligand) and incubated at room temperature with shaking for 30 minutes. The kinase concentration in the eluates was measured by quantitative PCR. Kd values were determined using a standard dose response curve using the hill equation. Curves were fitted using a non-linear least square fit with the Levenberg-Marquardt algorithm.
COc1cc(-c2cc(=O)c3c(O)cc(O)c(CC=C(C)C)c3o2)ccc1O [isocannflavin B] was tested, and the “ability to inhibit the BMP2K kinase” value was “demonstrated ability to inhibit”. COc1cc(-c2cc(=O)c3c(O)c(CC=C(C)C)c(O)cc3o2)ccc1O [cannflavin B] was tested, and the “ability to inhibit the BMP2K kinase” value was “demonstrated ability to inhibit”. For COc1cc(-c2cc(=O)c3c(O)cc(O)c(C/C=C(\C)CCC=C(C)C)c3o2)ccc1O [cannflavin C], the “ability to inhibit the BMP2K kinase” value was “demonstrated ability to inhibit”. In the case of COc1cc(-c2cc(=O)c3c(O)c(C/C=C(\C)CCC=C(C)C)c(O)cc3o2)ccc1O [cannflavin A], the “ability to inhibit the BMP2K kinase” value is reported as “demonstrated ability to inhibit”.

— patent US10278950B2, “Therapeutic agents containing cannabis flavonoid derivative for ocular disorders” (priority 2015, dated 2019)
